Test results: article PMC10438916 (Results in chemistry, 2022)
Values after ≈ are worked out from the molar mass of the structure shown.

Columns and labels:
[1] = Solubility by turbidimetric assay in sodium phosphate buffer; format: physicochemical; conditions: sodium phosphate buffer pH 7.4, 0.1 M, 1% DMSO
human sEH = target: T1, human sEH (Homo sapiens, UniProt P34913); experiment: Determination of inhibitory potency; format: biochemical; conditions: read-out: Human sEH IC50; recombinant affinity purified human sEH, means of three separate experiments
T1 sequence (P34913 1-555): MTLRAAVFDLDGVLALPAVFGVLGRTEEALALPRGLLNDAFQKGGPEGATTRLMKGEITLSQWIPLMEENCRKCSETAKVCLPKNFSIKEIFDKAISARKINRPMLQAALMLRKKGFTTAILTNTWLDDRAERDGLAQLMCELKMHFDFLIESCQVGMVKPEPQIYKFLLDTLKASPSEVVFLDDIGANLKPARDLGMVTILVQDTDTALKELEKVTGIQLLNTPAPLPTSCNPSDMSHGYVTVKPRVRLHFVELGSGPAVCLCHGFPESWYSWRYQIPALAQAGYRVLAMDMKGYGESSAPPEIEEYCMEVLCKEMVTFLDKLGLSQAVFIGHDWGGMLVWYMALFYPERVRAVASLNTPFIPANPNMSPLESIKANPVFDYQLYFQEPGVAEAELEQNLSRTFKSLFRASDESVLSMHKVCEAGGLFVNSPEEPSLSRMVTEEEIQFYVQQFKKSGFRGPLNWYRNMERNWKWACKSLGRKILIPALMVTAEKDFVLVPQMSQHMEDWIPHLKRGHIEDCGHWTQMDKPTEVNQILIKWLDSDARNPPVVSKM

Row | Compound | Solubility [1] [µM] | IC50 (human sEH) [nM]
1 | CC12CCC(C1)C(C)(C)C2NC(=S)Nc1cccc(F)c1 [Compound L-6e, L-1-(3-fluorophenyl)-3-(1,3,3-trimethylbicyclo[2.2.1]heptan-2-yl)thiourea] | 10 ± 5 (≈ 3.06 µg/mL) | 2980
2 | CC12CCC(C1)C(C)(C)C2NC(=O)Nc1cccc(F)c1 [Compound D-6a, D-1-(3-fluorophenyl)-3-(1,3,3-trimethylbicyclo[2.2.1]heptan-2-yl)urea] | 45 ± 10 (≈ 13.1 µg/mL) | 230
3 | CC1(C)C2CCC1(C)C(NC(=S)Nc1ccc(F)cc1)C2 [Compound D-3f, D-1-(4-fluorophenyl)-3-(1,7,7-trimethylbicyclo[2.2.1]heptan-2-yl)thiourea] | 15 ± 5 (≈ 4.6 µg/mL) | 38.3
4 | CC1(C)C2CCC1(C)C(NC(=O)Nc1cccc(F)c1)C2 (racemic) [L/D-3a, rac-1-(3-fluorophenyl)-3-(1,7,7-trimethylbicyclo[2.2.1]heptan-2-yl)urea] | 50 ± 10 (≈ 14.5 µg/mL) | 1.5
5 | CC1(C)C2CCC1(C)C(NC(=O)Nc1cccc(Cl)c1)C2 (racemic) [L/D-3d, rac-1-(3-chlorophenyl)-3-(1,7,7-trimethylbicyclo[2.2.1]heptan-2-yl)urea] | 35 ± 15 (≈ 10.7 µg/mL) | 1.6
6 | CC12CCC(C1)C(C)(C)C2NC(=S)Nc1ccc(F)cc1 [Compound L-6f, L-1-(4-fluorophenyl)-3-(1,3,3-trimethylbicyclo[2.2.1]heptan-2-yl)thiourea] | 15 ± 5 (≈ 4.6 µg/mL) | 4230
7 | CC1(C)C2CCC1(C)C(NC(=S)Nc1cccc(F)c1)C2 [Compound D-3e, D-1-(3-fluorophenyl)-3-(1,7,7-trimethylbicyclo[2.2.1]heptan-2-yl)thiourea] | 10 ± 5 (≈ 3.06 µg/mL) | 176
8 | CC1(C)C2CCC1(C)C(NC(=S)Nc1ccc(F)cc1)C2 [Compound L-3f, L-1-(4-fluorophenyl)-3-(1,7,7-trimethylbicyclo[2.2.1]heptan-2-yl)thiourea] | 15 ± 5 (≈ 4.6 µg/mL) | 31
9 | CC12CCC(C1)C(C)(C)C2NC(=S)Nc1ccc(F)cc1 [Compound D-6f, D-1-(4-fluorophenyl)-3-(1,3,3-trimethylbicyclo[2.2.1]heptan-2-yl)thiourea] | 15 ± 5 (≈ 4.6 µg/mL) | 6080
10 | CC12CCC(C1)C(C)(C)C2NC(=S)Nc1cccc(F)c1 [Compound D-6e, D-1-(3-fluorophenyl)-3-(1,3,3-trimethylbicyclo[2.2.1]heptan-2-yl)thiourea] | 10 ± 5 (≈ 3.06 µg/mL) | 6480
11 | CC1(C)C2CCC1(C)C(NC(=S)Nc1cccc(F)c1)C2 [Compound L-3e, L-1-(3-fluorophenyl)-3-(1,7,7-trimethylbicyclo[2.2.1]heptan-2-yl)thiourea] | 10 ± 5 (≈ 3.06 µg/mL) | 56.1
12 | CC1(C)C2CCC1(C)C(NC(=O)Nc1ccc(F)cc1)C2 (racemic) [L/D-3b, rac-1-(4-fluorophenyl)-3-(1,7,7-trimethylbicyclo[2.2.1]heptan-2-yl)urea] | 65 ± 15 (≈ 18.9 µg/mL) | 5.1
13 | CC1(C)C2CCC1(C)C(NC(=O)Nc1ccccc1Cl)C2 (racemic) [L/D-3c, rac-1-(2-chlorophenyl)-3-(1,7,7-trimethylbicyclo[2.2.1]heptan-2-yl)urea] | 30 ± 10 (≈ 9.21 µg/mL) | 85
14 | CC12CCC(C1)C(C)(C)C2NC(=O)Nc1ccc(F)cc1 [Compound D-6b, D-1-(4-fluorophenyl)-3-(1,3,3-trimethylbicyclo[2.2.1]heptan-2-yl)urea] | 65 ± 15 (≈ 18.9 µg/mL) | 367
15 | CC1(C)C2CCC1(C)C(NC(=S)Nc1cccc(F)c1)C2 (racemic) [L/D-3e, rac-1-(3-fluorophenyl)-3-(1,7,7-trimethylbicyclo[2.2.1]heptan-2-yl)thiourea] | 10 ± 5 (≈ 3.06 µg/mL) | 126
16 | CC1(C)C2CCC1(C)C(NC(=O)Nc1cccc(Cl)c1)C2 [Compound D-3d, D-1-(3-chlorophenyl)-3-(1,7,7-trimethylbicyclo[2.2.1]heptan-2-yl)urea] | 35 ± 15 (≈ 10.7 µg/mL) | 1.7
17 | CC12CCC(C1)C(C)(C)C2NC(=O)Nc1cccc(Cl)c1 [Compound D-6d, D-1-(3-chlorophenyl)-3-(1,3,3-trimethylbicyclo[2.2.1]heptan-2-yl)urea] | 40 ± 10 (≈ 12.3 µg/mL) | 111
18 | CC12CCC(C1)C(C)(C)C2NC(=O)Nc1ccccc1Cl [Compound D-6c, D-1-(2-chlorophenyl)-3-(1,3,3-trimethylbicyclo[2.2.1]heptan-2-yl)urea] | 40 ± 10 (≈ 12.3 µg/mL) | 4810
19 | CC1(C)C2CCC1(C)C(NC(=O)Nc1cccc(F)c1)C2 [Compound D-3a, D-1-(3-fluorophenyl)-3-(1,7,7-trimethylbicyclo[2.2.1]heptan-2-yl)urea] | 50 ± 10 (≈ 14.5 µg/mL) | 2.8
20 | CC1(C)C2CCC1(C)C(NC(=O)Nc1ccc(F)cc1)C2 [Compound D-3b, D-1-(4-fluorophenyl)-3-(1,7,7-trimethylbicyclo[2.2.1]heptan-2-yl)urea] | 65 ± 15 (≈ 18.9 µg/mL) | 8.2
21 | CC1(C)C2CCC1(C)C(NC(=S)Nc1ccc(F)cc1)C2 (racemic) [L/D-3f, rac-1-(4-fluorophenyl)-3-(1,7,7-trimethylbicyclo[2.2.1]heptan-2-yl)thiourea] | 15 ± 5 (≈ 4.6 µg/mL) | 33.5
22 | CC1(C)C2CCC1(C)C(NC(=O)Nc1ccccc1Cl)C2 [Compound D-3c, D-1-(2-chlorophenyl)-3-(1,7,7-trimethylbicyclo[2.2.1]heptan-2-yl)urea] | 30 ± 10 (≈ 9.21 µg/mL) | 69.6

Continued, values first:

Row | Solubility [1] [µM] | IC50 (human sEH) [nM] | Compound
23 | 65 ± 15 (≈ 18.9 µg/mL) | 4 | CC1(C)C2CCC1(C)C(NC(=O)Nc1ccc(F)cc1)C2 [Compound L-3b, L-1-(4-fluorophenyl)-3-(1,7,7-trimethylbicyclo[2.2.1]heptan-2-yl)urea]
24 | 45 ± 10 (≈ 13.1 µg/mL) | 221 | CC12CCC(C1)C(C)(C)C2NC(=O)Nc1cccc(F)c1 [Compound L-6a, L-1-(3-fluorophenyl)-3-(1,3,3-trimethylbicyclo[2.2.1]heptan-2-yl)urea]
25 | 35 ± 15 (≈ 10.7 µg/mL) | 1.5 | CC1(C)C2CCC1(C)C(NC(=O)Nc1cccc(Cl)c1)C2 [Compound L-3d, L-1-(3-chlorophenyl)-3-(1,7,7-trimethylbicyclo[2.2.1]heptan-2-yl)urea]
26 | 40 ± 10 (≈ 12.3 µg/mL) | 1470 | CC12CCC(C1)C(C)(C)C2NC(=O)Nc1ccccc1Cl [Compound L-6c, L-1-(2-chlorophenyl)-3-(1,3,3-trimethylbicyclo[2.2.1]heptan-2-yl)urea]
27 | 50 ± 10 (≈ 14.5 µg/mL) | 0.7 | CC1(C)C2CCC1(C)C(NC(=O)Nc1cccc(F)c1)C2 [Compound L-3a, L-1-(3-fluorophenyl)-3-(1,7,7-trimethylbicyclo[2.2.1]heptan-2-yl)urea]
28 | 40 ± 10 (≈ 12.3 µg/mL) | 166 | CC12CCC(C1)C(C)(C)C2NC(=O)Nc1cccc(Cl)c1 [Compound L-6d, L-1-(3-chlorophenyl)-3-(1,3,3-trimethylbicyclo[2.2.1]heptan-2-yl)urea]
29 | 30 ± 10 (≈ 9.21 µg/mL) | 387 | CC1(C)C2CCC1(C)C(NC(=O)Nc1ccccc1Cl)C2 [Compound L-3c, L-1-(2-chlorophenyl)-3-(1,7,7-trimethylbicyclo[2.2.1]heptan-2-yl)urea]
30 | 65 ± 15 (≈ 18.9 µg/mL) | 412 | CC12CCC(C1)C(C)(C)C2NC(=O)Nc1ccc(F)cc1 [Compound L-6b, L-1-(4-fluorophenyl)-3-(1,3,3-trimethylbicyclo[2.2.1]heptan-2-yl)urea]
